Results as given in US20170280720A1, “ARGININE […] INHIBITORS AND USES THEREOF” (EPIZYME, INC., priority 2014, published 2017).
pIC50: −log10 of the molar value.

Legend:
[1] = tested on: asymmetric di-methyl PABP1 in RKO cells; test: In Cell Western (ICW) for asymmetric di-methyl PABP1 and DNA content in RKO cells; format: cell-based; settings: Homo sapiens, RKO, In Cell Western
In short: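 RKO cells treated with compound for 48 h at 37 °C, then fixed, methanol-permeabilized and stained for asymmetric di-methyl PABP1 (800 nm) with DRAQ5 DNA stain (700 nm). Signal ratio normalized to DMSO and 20 μM reference-compound controls. IC50 from nine 3-fold dilutions in triplicate.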

PRMT5 = PRMT5 (Homo sapiens, UniProt O14744); test: PRMT5 IC50 (Table 2; no method described); format: biochemical; settings: read-out: PRMT5_ IC50
human PRMT1 = molecular target: T1, human PRMT1 (Homo sapiens, UniProt Q99873); test: PRMT1 biochemical assay (3H-SAM Flashplate, peptide substrate); settings: read-out: PRMT1_ IC50
T1 construct: GST-tagged PRMT1; made in house; host or cells: High Five insect cells (baculovirus, pFastBacI)
Description: S-adenosylmethionine (SAM), S-adenosylhomocysteine (SAH), bicine, Tween20, dimethylsulfoxide (DMSO), bovine skin gelatin (BSG), and Tris(2-carboxyethyl)phosphine hydrochloride solution (TCEP) were purchased from Sigma-Aldrich at the highest level of purity possible. ^3H-SAM was purchase from American Radiolabeled Chemicals with a specific activity of 80 Ci/mmol. 384-well streptavidin Flashplates were purchased from PerkinElmer.
Peptide representative of human histone H4 residues 36-50 was synthesized with an N-terminal linker-affinity tag motif and a C-terminal amide cap by 21st Century Biochemicals. The peptide was purified by high-performance liquid chromatography (HPLC) to greater than 95% purity and confirmed by liquid chromatography mass spectrometry (LC-MS). The sequence was Biot-Ahx-[…]-amide (SEQ ID NO.: 1).
Full-length human PRMT1 isoform 1 (NM_001536.5) transcript clone was amplified from an HEK 293 cDNA library, incorporating flanking 5′ sequence encoding a FLAG tag ([…]) (SEQ ID NO.: 2) fused directly to Met 1 of PRMT1. The amplified gene was subcloned into pFastBacI (Life Technologies) modified to encode an N-terminal GST tag and a TEV cleavage sequence ([…] […] […] […] QGGNS)(SEQ ID NO.: 3) fused to Asp of the Flag tag of PRMT1.
Recombinant baculovirus were generated according to Bac-to-Bac kit instructions (Life Technologies). Protein over-expression was accomplished by infecting exponentially growing High Five insect cell culture at 1.5×10^6 cell/ml with 1:100 ratio of virus. Infections were carried out at 27° C. for 48 hours, harvested by centrifugation, and stored at −80° C. for purification.
GST-tagged PRMT1 was eluted with 50 mM Tris, 2 mM glutathione, pH 7.8, dialysed in buffer A and concentrated to 1 mg/mL. The purity of recovered protein was 73%. Reference: Wasilko, D. J. and S. E. Lee: “TIPS: titerless infected-cells preservation and scale-up” Bioprocess J., 5 (2006), pp. 29-32.
General Procedure for PRMT1 Enzyme Assays on Peptide Substrates.
The assays were all performed in a buffer consisting of 20 mM Bicine (pH=7.6), 1 mM TCEP, 0.005% BSG, and 0.002% Tween 20, prepared on the day of use. Compounds in 100% DMSO (1 ul) were spotted into a polypropylene 384-well V-bottom plates (Greiner) using a Platemate Plus outfitted with a 384-channel head (Thermo Scientific). DMSO (1 ul) was added to Columns 11, 12, 23, 24, rows A-H for the maximum signal control and 1 ul of SAH, a known product and inhibitor of PRMT1, was added to columns 11, 12, 23, 24, rows I-P for the minimum signal control. A cocktail (40 ul) containing the PRMT1 enzyme was added by Multidrop Combi (Thermo-Fisher). The compounds were allowed to incubate with PRMT1 for 30 min at room temperature, then a cocktail (10 ul) containing SAM and peptide was added to initiate the reaction (final volume=51 ul). The final concentrations of the components were as follows: PRMT1 was 0.5 nM, ^3H-SAM was 200 nM, non-radiolabeled SAM was 1.5 uM, peptide was 20 nM, SAH in the minimum signal control wells was 1 mM, and the DMSO concentration was 2%. The assays were stopped by the addition of non-radiolabeled SAM (10 ul) to a final concentration of 300 uM, which dilutes the ^3H-SAM to a level where its incorporation into the peptide substrate is no longer detectable. 50 ul of the reaction in the 384-well polypropylene plate was then transferred to a 384-well Flashplate and the biotinylated peptides were allowed to bind to the streptavidin surface for at least 1 hour before being washed once with 0.1% Tween20 in a Biotek ELx405 plate washer. The plates were then read in a PerkinElmer TopCount plate reader to measure the quantity of ^3H-labeled peptide bound to the Flashplate surface, measured as disintegrations per minute (dpm) or alternatively, referred to as counts per minute (cpm).
Where dpm=disintegrations per minute, cmpd=signal in assay well, and min and max are the respective minimum and maximum signal controls. […]

T1 sequence (Q99873 with tags, fused parts or gaps): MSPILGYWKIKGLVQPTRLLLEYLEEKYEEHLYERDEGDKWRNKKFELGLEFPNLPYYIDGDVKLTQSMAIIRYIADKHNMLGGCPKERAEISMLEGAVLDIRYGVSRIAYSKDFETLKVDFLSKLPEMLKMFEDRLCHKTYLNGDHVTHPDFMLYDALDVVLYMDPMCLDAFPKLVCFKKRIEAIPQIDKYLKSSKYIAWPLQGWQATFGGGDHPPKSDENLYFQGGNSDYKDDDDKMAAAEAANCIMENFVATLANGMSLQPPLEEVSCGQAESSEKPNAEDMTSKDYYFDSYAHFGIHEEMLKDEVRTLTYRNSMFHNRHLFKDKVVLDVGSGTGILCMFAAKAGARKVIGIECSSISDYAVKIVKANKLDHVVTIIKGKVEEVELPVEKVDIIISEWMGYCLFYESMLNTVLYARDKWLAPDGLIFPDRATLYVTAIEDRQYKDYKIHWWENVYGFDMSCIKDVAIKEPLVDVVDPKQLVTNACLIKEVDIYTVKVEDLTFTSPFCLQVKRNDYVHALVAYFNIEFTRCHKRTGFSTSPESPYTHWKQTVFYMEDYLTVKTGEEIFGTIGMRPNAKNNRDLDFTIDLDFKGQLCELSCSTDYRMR
Sequence of PRMT5 (O14744 whole entry, species assumed): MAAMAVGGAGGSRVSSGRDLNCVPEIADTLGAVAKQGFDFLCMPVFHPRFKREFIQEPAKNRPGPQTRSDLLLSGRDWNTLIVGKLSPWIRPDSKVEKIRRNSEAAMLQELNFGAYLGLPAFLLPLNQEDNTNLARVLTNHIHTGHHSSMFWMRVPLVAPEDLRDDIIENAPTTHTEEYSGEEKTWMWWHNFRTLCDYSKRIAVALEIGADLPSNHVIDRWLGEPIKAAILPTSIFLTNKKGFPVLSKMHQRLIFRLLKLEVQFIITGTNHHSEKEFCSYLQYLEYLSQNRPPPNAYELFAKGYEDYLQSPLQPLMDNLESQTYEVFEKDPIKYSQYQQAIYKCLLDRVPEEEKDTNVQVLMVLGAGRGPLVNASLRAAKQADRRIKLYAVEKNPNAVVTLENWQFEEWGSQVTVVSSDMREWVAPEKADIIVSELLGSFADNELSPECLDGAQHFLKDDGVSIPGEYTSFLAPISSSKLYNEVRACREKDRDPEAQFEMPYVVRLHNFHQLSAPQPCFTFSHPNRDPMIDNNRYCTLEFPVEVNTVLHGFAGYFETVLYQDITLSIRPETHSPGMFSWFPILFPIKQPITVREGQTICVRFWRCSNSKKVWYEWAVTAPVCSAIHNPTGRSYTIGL
Sequence of PRMT5 (Q9BQA1 whole entry partner, species assumed): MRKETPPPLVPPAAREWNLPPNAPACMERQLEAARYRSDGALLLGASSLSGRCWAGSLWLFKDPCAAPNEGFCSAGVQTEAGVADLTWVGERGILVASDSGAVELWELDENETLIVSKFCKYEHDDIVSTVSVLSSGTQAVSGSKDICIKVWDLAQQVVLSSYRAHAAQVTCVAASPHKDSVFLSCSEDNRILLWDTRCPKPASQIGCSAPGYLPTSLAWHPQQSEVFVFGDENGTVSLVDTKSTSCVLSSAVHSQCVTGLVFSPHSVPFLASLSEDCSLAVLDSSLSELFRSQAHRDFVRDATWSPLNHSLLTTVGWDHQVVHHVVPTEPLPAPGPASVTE

Structure (SMILES) | pIC50 [1] | pIC50 (PRMT5) | pIC50 (human PRMT1)
Cc1[nH]c2ncc(-c3ccc(CNCCN)cc3)cc2c1C [Compound 140] | 4.90 | 6.89 | 5.96
CN(C)C(=O)c1ccc(Cn2cnc3ccc(-c4ccc(CNCCN)cc4)cc32)cc1 [Compound 147] |  | 6.89 | 5.88
N#Cc1ccc(-n2cnc3ccc(-c4ccc(CNCCN)cc4)cc32)cc1 [Compound 149] |  | 6.62 | 5.81
Cc1cc2cc(-c3ccc(CNCCN)cc3)cnc2[nH]1 [Compound 152] |  | 6.50 | 5.77
Cn1cnc2ccc(-c3ccc(CNCCN)cc3)cc21 [Compound 165] |  | 6.60 | 5.34

The next lines start with the values.

pIC50 [1] | pIC50 (PRMT5) | pIC50 (human PRMT1) | Structure (SMILES)
 | 4.61 | 6.70 | Cc1cc(C)c(CNC(=O)c2ccnc(-c3cccc(CN(C)CCN)c3)c2)c(=O)[nH]1 [Compound 376]
 | 4.44 | 6.69 | CNCCNCc1ccc(-c2cncc(C(=O)NCc3c(C)cc(C)[nH]c3=O)c2)cc1 [Compound 377]
